Measured values taken from patent publication US20230116602A1, “MCL1 INHIBITORS AND USES THEREOF” (California Institute of Technology, priority 2019, published 2023).

Experiments:
MCL1 = MCL1 (Homo sapiens, UniProt Q07820); assay: MCL1 affinity assay (competition binding, qPCR readout); settings: recombinant MCL1, 11-point 3-fold dilution series
Procedure: Recombinant MCL1, BCL2 and BCXL proteins were prepared in either an E. coli host derived from the BL21 strain or in HEK-293 cells. The recombinant proteins were subsequently tagged with DNA for qPCR detection. Streptavidin-coated magnetic beads were treated for 30 minutes at room temperature with the respective biotinylated peptide ligands for each recombinant protein to generate affinity resins for the assays. The liganded beads were blocked with excess biotin and washed with blocking buffer (SeaBlock (Pierce), 1% BSA, 0.05% Tween 20, 1 mM DTT) to remove unbound ligand and to reduce nonspecific binding. Binding reactions were assembled by combining recombinant protein, liganded affinity beads, and test compounds in 1× binding buffer (20% SeaBlock, 0.17×PBS, 0.05% Tween 20, 6 mM DTT). Test compounds were prepared as 111X stocks in 100% DMSO. The compounds were then diluted directly into the assays such that the final concentration of DMSO was 0.9%. The assay plates were incubated at room temperature with shaking for 1 hour and the affinity beads were washed with wash buffer (1×PBS, 0.05% Tween 20). The beads were then re-suspended in elution buffer (1×PBS, 0.05% Tween 20, 0.5 μM non-biotinylated affinity ligand) and incubated at room temperature with shaking for 30 minutes. The recombinant protein concentration in the eluates was measured by qPCR. Kds were determined using an 11-point 3-fold compound dilution series with three DMSO control points.

[1] = system: drug-sensitive cell lines of Table 3; assay: Cell line growth retardation assay, sensitive cohort; format: cell-based, Human; settings: for IC50: Homo sapiens, 144 h, arithmetic mean of IC50s over the sensitive cohort of Table 3, 6 days growth, read-out: AvgSen IC50; for Fold Diff: average IC50 of resistant cohort divided by average IC50 of sensitive cohort
Procedure: (§1) Cells were seeded at densities of 1,000-5,000 cells per well in 48-well tissue culture plates. After a 24 h rest period, cells were treated with compound at 10 μM, 1 μM, […], 0.08 μM, 0.016 μM, and 0.0032 μM. A group of cells were treated with the vehicle in which the compound was prepared and served as a control. Prior to treatment, cells were counted and this count was used as a baseline for the calculation of growth inhibition. The cells were grown in the presence of compounds for 6 days and were counted on day 6. All cell counting was performed using a Synentec Cellavista plate imager. Growth inhibition was calculated as a ratio of cell population doublings in the presence of compound versus the absence of compound. […] IC50 values for each compound were calculated by fitting curves to data points from each dose-response assay using the Proc NLIN function in SAS for Windows version 9.2 (SAS Institute, Inc.).
(§2) Human cancer cell lines were grouped as “sensitive” or “resistant” to MCL1 inhibition based on whether their growth was retarded by AMG-176 (i.e., (1′S,11R,12S,14E,16S,16aR,18aR)-6′-Chloro-3′,4′,12,13,16,16a,17,18,18a,19-decahydro-16-methoxy-11,12-dimethyl-,Spiro[5,7-etheno-1H,11H-cyclobut[i][1,4]oxazepino[3,4-f][1,2,7]thiadiazacyclohexadecine-2(3H),1′(2′H)-naphthalen]-8(9H)-one 10,10-dioxide) or MIK665 (i.e., (R)-2-((5-(3-chloro-2-methyl-4-(2-(4-methylpiperazin-1-yl)ethoxy)phenyl)-6-(4-fluorophenyl)thieno[2,3-d]pyrimidin-4-yl)oxy)-3-(2-((2-(2-methoxyphenyl)pyrimidin-4-yl)methoxy)phenyl)propanoic acid) (data not shown; see Table 3). These sensitive and resistant cohorts were interrogated for response to each compound, and IC50S were calculated for each cell line using the same technique described above. Average IC50S for the sensitive (“AvgSen IC50”) and resistant (“AvgRes IC50”) cohorts were calculated as arithmetic means of the group, and fold differences (“Fold Diff”) between the resistant and sensitive cohorts were calculated by diving the average IC50 for the resistant cohort by the average IC50 for the sensitive cohort. “A” represents an IC50 of 1 μM or less, “B” represents an IC50 of greater than 1 μM to 5 μM, “C” represents an IC50 of greater than 5 μM, “+” represents a fold difference of 10 or more, and “−” represents a fold difference less than 10.

[2] = system: drug-resistant cell lines of Table 3; assay: Cell line growth retardation assay, resistant cohort; format: cell-based, Human; settings: Homo sapiens, 144 h; arithmetic mean of IC50s over the resistant cohort of Table 3, 6 days growth; read-out: AvgRes IC50
Procedure: as §1, §2

Chain of MCL1 (Q07820 whole entry): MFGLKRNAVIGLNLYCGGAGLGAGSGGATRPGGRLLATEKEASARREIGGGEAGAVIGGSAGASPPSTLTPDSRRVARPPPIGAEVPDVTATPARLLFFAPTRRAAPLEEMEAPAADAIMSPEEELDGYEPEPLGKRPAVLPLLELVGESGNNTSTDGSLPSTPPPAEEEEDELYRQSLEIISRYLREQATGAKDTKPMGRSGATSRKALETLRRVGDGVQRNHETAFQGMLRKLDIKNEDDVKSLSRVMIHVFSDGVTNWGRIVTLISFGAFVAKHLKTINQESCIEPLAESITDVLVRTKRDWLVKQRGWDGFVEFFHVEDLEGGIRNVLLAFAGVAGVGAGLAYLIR

Row | SMILES | Kd (MCL1) [nM] | IC50 [1] [nM] | Fold Diff [1] | IC50 [2] [nM]
1 | COc1ccccc1-c1nccc(COc2ccccc2C[C@@H](Oc2nsc3cnc(-c4ccn(CC(C)C)n4)c(-c4ccc(OCCN5CCN(C)CC5)c(Cl)c4C)c23)C(=O)O)n1 (atropisomer, axis not shown) [Compound 38] | ≤ 100 | ≤ 1000 | + (“+” represents a fold difference of 10 or more) | > 5000
2 | COc1ccccc1-c1nccc(COc2ccccc2C[C@@H](Oc2nsc3cnc(-c4cc(F)c(F)c(F)c4)c(-c4ccc(OCCN5CCN(C)CC5)c(Cl)c4C)c23)C(=O)O)n1 (atropisomer, axis not shown) [Compound 84] | ≤ 100 | ≤ 1000 | + (“+” represents a fold difference of 10 or more) | > 5000
3 | Cc1c(-c2cc(-c3nccc4cc(Cl)ccc34)cc3snc(O[C@H](Cc4ccccc4OCc4ccnn4CC(F)(F)F)C(=O)O)c23)ccc(OCCN2CCN(C)CC2)c1Cl [Compound 95] | > 1500 | > 5000 | − (“−” represents a fold difference less than 10) | > 5000
4 | COc1ccccc1-c1nccc(COc2ccccc2C[C@@H](Oc2nsc3cnc(-c4cccc(C#N)c4)c(-c4ccc(OCCN5CCN(C)CC5)c(Cl)c4C)c23)C(=O)O)n1 (atropisomer, axis not shown) [Compound 80] | ≤ 100 | ≤ 1000 | + (“+” represents a fold difference of 10 or more) | > 5000
5 | Cc1c(-c2c(-c3cccc(F)c3)ncc3snc(O[C@H](Cc4ccccc4OCc4ccnc(OCC(F)(F)F)n4)C(=O)O)c23)ccc(OCCN2CCN(C)CC2)c1Cl (atropisomer, axis not shown) [Compound 69] | ≤ 100 | ≤ 1000 | + (“+” represents a fold difference of 10 or more) | > 5000
6 | COc1ccccc1-c1nccc(COc2ccccc2C[C@@H](Oc2nsc3cnc(C4CCC4)c(-c4ccc(OC)c(Cl)c4C)c23)C(=O)O)n1 (atropisomer, axis not shown) [Compound 107] | ≤ 100 | > 5000 | − (“−” represents a fold difference less than 10) | > 5000
7 | Cc1c(-c2c(C3CCC3)ncc3snc(O[C@H](Cc4ccccc4OCc4ccnc(-c5ccc(OCc6ccccc6)nc5)n4)C(=O)O)c23)ccc(OCCN2CCN(C)CC2)c1Cl (atropisomer, axis not shown) [Compound 113] | > 1500 | > 5000 | − (“−” represents a fold difference less than 10) | > 5000
8 | CCOc1cc(-c2ncc3snc(O[C@H](Cc4ccccc4OCc4ccnc(-c5ccccc5OC)n4)C(=O)O)c3c2-c2ccc(OCCN3CCN(C)CC3)c(Cl)c2C)ccn1 (atropisomer, axis not shown) [Compound 32] | ≤ 100 | ≤ 1000 | + (“+” represents a fold difference of 10 or more) | > 5000
9 | COc1ccccc1-c1nccc(COc2ccccc2C[C@@H](Oc2nsc3cnc(-c4cnn(CC5CCC5)c4)c(-c4ccc(OCCN5CCN(C)CC5)c(Cl)c4C)c23)C(=O)O)n1 (atropisomer, axis not shown) [Compound 90] | 101 to 500 | 1000 to 5000 | − (“−” represents a fold difference less than 10) | > 5000
10 | COc1ccccc1-c1nccc(COc2ccccc2C[C@@H](Oc2nsc3cnc(-c4ccc(F)cc4C)c(-c4ccc(OCCN5CCN(C)CC5)c(Cl)c4C)c23)C(=O)O)n1 (atropisomer, axis not shown) [Compound 86] | 501 to 1500 | 1000 to 5000 | − (“−” represents a fold difference less than 10) | > 5000
11 | COc1cccc(-c2ncc3snc(O[C@H](Cc4ccccc4OCc4ccnc(N5CCC(OC)CC5)n4)C(=O)O)c3c2-c2ccc(OCCN3CCN(C)CC3)c(Cl)c2C)c1 (atropisomer, axis not shown) [Compound 70] | 101 to 500 | ≤ 1000 | + (“+” represents a fold difference of 10 or more) | > 5000
12 | Cc1c(-c2c(C3CCC3)ncc3snc(O[C@H](Cc4ccccc4OCc4ccnc(-c5ccncc5)n4)C(=O)O)c23)ccc(OCCN2CCN(C)CC2)c1Cl (atropisomer, axis not shown) [Compound 74] | > 1500 | > 5000 | − (“−” represents a fold difference less than 10) | > 5000
13 | Cc1c(-c2c(N3CC4(COC4)C3)ncc3snc(O[C@H](Cc4ccccc4OCc4ccnn4CC(F)(F)F)C(=O)O)c23)ccc(OCCN2CCN(C)CC2)c1Cl (atropisomer, axis not shown) [Compound 91] | > 1500 | > 5000 | − (“−” represents a fold difference less than 10) | > 5000
14 | Cc1c(Cl)c2cc(Cl)cnc2n1-c1cc(CC2CCC2)c2c(O[C@H](Cc3ccccc3OCc3ccnn3CC(F)(F)F)C(=O)O)nsc2c1 [Compound 101] | > 1500 | > 5000 | − (“−” represents a fold difference less than 10) | > 5000
15 | Cc1c(-c2c(C3CCC3)ncc3snc(O[C@H](Cc4ccccc4OCc4ccnc(-c5cccc(OC(F)(F)F)c5)n4)C(=O)O)c23)ccc(OCCN2CCN(C)CC2)c1Cl (atropisomer, axis not shown) [Compound 117] | 101 to 500 | 1000 to 5000 | − (“−” represents a fold difference less than 10) | > 5000
16 | CCOc1cccc(-c2ncc3snc(O[C@H](Cc4ccccc4OCc4ccnc(-c5ccccc5OC)n4)C(=O)O)c3c2-c2ccc(OCCN3CCN(C)CC3)c(Cl)c2C)c1 (atropisomer, axis not shown) [Compound 87] | ≤ 100 | ≤ 1000 | + (“+” represents a fold difference of 10 or more) | > 5000
17 | COc1ccccc1-c1nccc(COc2ccccc2C[C@@H](Oc2nsc3cnc(-c4cccc(F)c4)c(-c4ccc(OCCC5CCN(C)CC5)c(Cl)c4C)c23)C(=O)O)n1 (atropisomer, axis not shown) [Compound 102] | ≤ 100 | 1000 to 5000 | − (“−” represents a fold difference less than 10) | > 5000
18 | COc1cccc(-c2ncc3snc(O[C@H](Cc4ccccc4OCc4ccnc(N5CCCC(F)(F)C5)n4)C(=O)O)c3c2-c2ccc(OCCN3CCN(C)CC3)c(Cl)c2C)c1 (atropisomer, axis not shown) [Compound 61] | 101 to 500 | ≤ 1000 | + (“+” represents a fold difference of 10 or more) | > 5000
19 | COc1cc(-c2ncc3snc(O[C@H](Cc4ccccc4OCc4ccnc(-c5ccccc5OC)n4)C(=O)O)c3c2-c2ccc(OCCN3CCN(C)CC3)c(Cl)c2C)ccc1F (atropisomer, axis not shown) [Compound 37] | 101 to 500 | > 5000 | − (“−” represents a fold difference less than 10) | > 5000
20 | Cc1c(-c2c(C3CCC3)ncc3snc(O[C@H](Cc4ccccc4OCc4ccnc(-c5cccc(S(C)(=O)=O)c5)n4)C(=O)O)c23)ccc(OCCN2CCN(C)CC2)c1Cl (atropisomer, axis not shown) [Compound 118] | ≤ 100 | 1000 to 5000 | − (“−” represents a fold difference less than 10) | > 5000
